In brackets after ≈: the same amount, converted by molar mass.
What was measured:
Test in all cases: In vitro antibacterial activity, microtitration dilution method
Assay type in all cases: cell-based
[1] = tested on: Streptococcus pneumoniae SV-1; conditions: SV1, read-out: Minimal Inhibitory Concentration MIC
Excerpt: (§1) The compounds of the invention display anti-bacterial activity when tested by the microtitration dilution method as described in Heifetz, et al, Antimicr. Agents & Chemoth., 6, 124 (1974), which is incorporated herein by reference and illustrated in the following table.

[2] = tested on: Klebsiella pneumoniae MGH-2; conditions: MGH2, read-out: Minimal Inhibitory Concentration MIC
Excerpt: as §1

[3] = tested on: Streptococcus pyogenes C-203; conditions: C203, read-out: Minimal Inhibitory Concentration MIC
Excerpt: as §1

[4] = tested on: Streptococcus faecalis MGH-2; conditions: Enterococcus faecalis, MGH2, read-out: Minimal Inhibitory Concentration MIC
Excerpt: as §1

[5] = tested on: Enterobacter cloacae MA 2646; conditions: MA2646, read-out: Minimal Inhibitory Concentration MIC
Excerpt: as §1

[6] = tested on: Staphylococcus aureus UC-76; conditions: UC76, read-out: Minimal Inhibitory Concentration MIC
Excerpt: as §1

[7] = tested on: Pseudomonas aeruginosa UI-18; conditions: UI18, read-out: Minimal Inhibitory Concentration MIC
Excerpt: as §1

[8] = tested on: Staphylococcus aureus H 228; conditions: H228, read-out: Minimal Inhibitory Concentration MIC
Excerpt: as §1

[9] = tested on: Escherichia coli Vogel; conditions: read-out: Minimal Inhibitory Concentration MIC
Excerpt: as §1

[10] = tested on: Proteus rettgeri M 1771; conditions: Providencia rettgeri, M1771, read-out: Minimal Inhibitory Concentration MIC
Excerpt: as §1

Structure (SMILES)	MIC [1] [µg/mL]	MIC [2] [µg/mL]	MIC [3] [µg/mL]	MIC [4] [µg/mL]	MIC [5] [µg/mL]	MIC [6] [µg/mL]	MIC [7] [µg/mL]	MIC [8] [µg/mL]	MIC [9] [µg/mL]	MIC [10] [µg/mL]
CCNCC1CCN(c2c(F)cc3c(=O)c(C(=O)O)cn(-c4ccc(F)cc4)c3c2F)C1 (stereo not drawn) [Ex. 1]	0.4 (≈ 0.898 µM)	1.6 (≈ 3.59 µM)	0.4 (≈ 0.898 µM)	0.2 (≈ 0.449 µM)	0.8 (≈ 1.8 µM)	0.2 (≈ 0.449 µM)	1.6 (≈ 3.59 µM)	0.1 (≈ 0.224 µM)	0.8 (≈ 1.8 µM)	1.6 (≈ 3.59 µM)
NCC1CCN(c2c(F)cc3c(=O)c(C(=O)O)cn(-c4ccccc4)c3c2F)C1 (stereo not drawn) [Ex. 4, 7-[3-(Aminomethyl)-1-pyrrolidinyl]-6,8-difluoro-1,4-dihydro-4-oxo-1-phenyl-3-quinoline carboxylic acid]	0.2 (≈ 0.501 µM)	0.8 (≈ 2 µM)	0.2 (≈ 0.501 µM)	0.2 (≈ 0.501 µM)	0.4 (≈ 1 µM)	0.1 (≈ 0.25 µM)	1.6 (≈ 4.01 µM)	0.2 (≈ 0.501 µM)	0.2 (≈ 0.501 µM)	1.6 (≈ 4.01 µM)
CCNCC1CCN(c2c(F)cc3c(=O)c(C(=O)O)cn(-c4ccccc4)c3c2F)C1 (stereo not drawn) [Ex. 3, 7-[3-[(Ethylamino)methyl]-1-pyrrolidinyl]-6,8-difluoro-1,4-dihydro-4-oxo-1-phenyl-3-quinolinecarboxylic acid]	1.6 (≈ 3.74 µM)	1.6 (≈ 3.74 µM)	1.6 (≈ 3.74 µM)	0.8 (≈ 1.87 µM)	1.6 (≈ 3.74 µM)	0.2 (≈ 0.468 µM)	6.3 (≈ 14.7 µM)	0.8 (≈ 1.87 µM)	1.6 (≈ 3.74 µM)	6.3 (≈ 14.7 µM)

— patent US4617308A, “7-substituted amino-1-aryl-6,8-difluoro-1,4-dihydro-4-oxo-3-quinolinecarboxylic acids and derivatives thereof as antibacterial agents” (Warner-Lambert Company, priority 1985, dated 1986)
